Reference: patent publication US10618875B2 (priority 2017, dated 2020)
Counter-ions that a name gives are not always drawn.

Assays:
NCI-60 cell lines = experiment: cells; assay type: cell-based, human
[1] = in vivo
[2] = mouse, in vivo
[3] = test system: Hep3B-luc human liver tumor; parameters: species or system BALB/c nude mice; settings: mouse

| Structure (SMILES) | delta of growth percent across all cell lines tested (NCI-60 cell lines) | range of growth percent across all cell lines (NCI-60 cell lines) | activity at 10 µM (NCI-60 cell lines; Homo sapiens, 48 h, read-out: mean growth percent of control across the NCI-60) | inhibition at 10 µM (NCI-60 cell lines; Homo sapiens, read-out: growth inhibition in any of the NCI-60 cell lines) | animals that died ([1]; male, C57BL/6, mouse) | LD50 ([1]; mouse, po) | blood creatinine [2] | BLI (in vivo bioluminescence) of Hep3B-luc tumor [3] |
| --- | --- | --- | --- | --- | --- | --- | --- | --- |
| O=[N+]([O-])c1ccc(O)c([N+](=O)[O-])c1 [DNP, 2,4-dinitrophenol] | 28.44% | 44.43% | 98.4% | < 50% | 50% | 100 mpk | raised blood creatinine |  |
| CNC(=O)c1cc(Oc2ccc(NC(=O)Nc3ccc(Cl)c(C(F)(F)F)c3)cc2)ccn1 [Sorafenib, Sorafenib Tosylate] |  |  |  |  |  |  |  | showed a trend toward having an effects on decreasing BLI |
